Structures are written as SMILES. pKi: −log10 of the molar value.

In the test the target is T1, STAT6 protein (Homo sapiens, UniProt P42226).
T1 sequence (P42226 1-847): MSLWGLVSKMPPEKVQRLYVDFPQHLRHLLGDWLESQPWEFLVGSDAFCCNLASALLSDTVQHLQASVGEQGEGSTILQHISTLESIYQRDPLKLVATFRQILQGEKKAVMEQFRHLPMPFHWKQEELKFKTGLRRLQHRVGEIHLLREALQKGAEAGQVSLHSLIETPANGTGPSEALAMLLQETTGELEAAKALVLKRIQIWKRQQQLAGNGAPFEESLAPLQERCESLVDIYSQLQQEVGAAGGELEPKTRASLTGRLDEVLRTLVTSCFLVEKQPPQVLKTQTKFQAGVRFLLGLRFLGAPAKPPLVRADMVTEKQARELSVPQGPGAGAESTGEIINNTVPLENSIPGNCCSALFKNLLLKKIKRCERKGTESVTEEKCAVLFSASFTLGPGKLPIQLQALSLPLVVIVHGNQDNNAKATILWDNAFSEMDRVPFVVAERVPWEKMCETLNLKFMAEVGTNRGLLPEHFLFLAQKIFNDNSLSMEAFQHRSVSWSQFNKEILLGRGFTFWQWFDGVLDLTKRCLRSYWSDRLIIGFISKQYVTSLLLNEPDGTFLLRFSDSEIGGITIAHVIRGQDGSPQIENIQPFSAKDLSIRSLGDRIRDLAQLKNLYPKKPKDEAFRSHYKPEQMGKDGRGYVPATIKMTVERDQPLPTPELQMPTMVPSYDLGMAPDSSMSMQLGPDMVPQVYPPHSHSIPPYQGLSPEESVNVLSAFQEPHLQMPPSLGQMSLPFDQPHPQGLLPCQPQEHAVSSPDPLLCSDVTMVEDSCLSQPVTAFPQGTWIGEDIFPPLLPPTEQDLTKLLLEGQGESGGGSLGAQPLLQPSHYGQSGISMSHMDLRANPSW
Put plainly: Fluorescence polarization (FP) binding assay, STAT6. The settings on record: FP competition, 5 nM fluorescein-labeled tracer, 200 nM protein, PBS pH7.4; read-out: Binding STAT6. The method in brief:
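Polarization read after 1 h equilibration at room temperature (preceded by 15 min shaking) of 200 nM STAT5 and/or STAT6 with 5 nM fluorescein tracer. Buffer: PBS pH 7.4 plus 0.01% BGG, 0.01% Tween-20, 2 mM DTT; inhibition constants derived by nonlinear fitting.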
Consider `CC(=O)N1CC[C@H]2CC[C@@H](C(=O)N3CCc4cc(Cl)ccc4C3)N2C(=O)[C@@H](NC(=O)c2cc3cc(C(F)(F)P(=O)(O)O)ccc3[nH]2)C1` [Compound 366, ((2-(((5S,8S,10aR)-3-acetyl-8-(6-chloro-1,2,3,4-tetrahydroisoquinoline-2-carbonyl)-6-oxodecahydropyrrolo[1,2-a][1,5]diazocin-5-yl)carbamoyl)-1H-indol-5-yl)difluoromethyl)phosphonic acid], for which the pKi was less than 5.00.
With `CC(=O)N1CC[C@H]2CC[C@@H](C(=O)N3CCOCC3)N2C(=O)[C@@H](NC(=O)c2cc3cc(C(F)(F)P(=O)(O)O)ccc3[nH]2)C1` [Compound 367, ((2-(((5S,8S,10aR)-3-acetyl-8-(morpholine-4-carbonyl)-6-oxodecahydropyrrolo[1,2-a][1,5]diazocin-5-yl)carbamoyl)-1H-indol-5-yl)difluoromethyl)phosphonic acid] the figure was less than 5.00.
For the compound `CC(=O)N1CC[C@H]2CC[C@@H](C(=O)N3CCCOCC3)N2C(=O)[C@@H](NC(=O)c2cc3cc(C(F)(F)P(=O)(O)O)ccc3[nH]2)C1` [Compound 368, ((2-(((5S,8S,10aR)-3-acetyl-8-(1,4-oxazepane-4-carbonyl)-6-oxodecahydropyrrolo[1,2-a][1,5]diazocin-5-yl)carbamoyl)-1H-indol-5-yl)difluoromethyl)phosphonic acid], the pKi is less than 5.00.
As to `CC(=O)N1CC[C@H]2CC[C@@H](C(=O)N3CCCc4ccccc4C3)N2C(=O)[C@@H](NC(=O)c2cc3cc(C(F)(F)P(=O)(O)O)ccc3[nH]2)C1` [Compound 369, ((2-(((5S,8S,10aR)-3-acetyl-6-oxo-8-(2,3,4,5-tetrahydro-1H-benzo[c]azepine-2-carbonyl)decahydropyrrolo[1,2-a][1,5]diazocin-5-yl)carbamoyl)-1H-indol-5-yl)difluoromethyl)phosphonic acid], the pKi was less than 5.00.
As for `CC(=O)N1CC[C@H]2CC[C@@H](C(=O)N(c3ccccc3)c3ccc(Br)cc3)N2C(=O)[C@@H](NC(=O)c2cc3cc(C(F)(F)P(=O)(O)O)ccc3[nH]2)C1` [Compound 370, ((2-(((5S,8S,10aR)-3-acetyl-8-((4-bromophenyl)(phenyl)carbamoyl)-6-oxodecahydropyrrolo[1,2-a][1,5]diazocin-5-yl)carbamoyl)-1H-indol-5-yl)difluoromethyl)phosphonic acid], the pKi was 5.00 to 6.00.
Regarding `CC(=O)N1CC[C@H]2CC[C@@H](C(=O)N(c3ccc(Cl)cc3)C3CCCCC3)N2C(=O)[C@@H](NC(=O)c2cc3cc(C(F)(F)P(=O)(O)O)ccc3[nH]2)C1` [Compound 371, ((2-(((5S,8S,10aR)-3-acetyl-8-((4-chlorophenyl)(cyclohexyl)carbamoyl)-6-oxodecahydropyrrolo[1,2-a][1,5]diazocin-5-yl)carbamoyl)-1H-indol-5-yl)difluoromethyl)phosphonic acid], the pKi was less than 5.00.
As for `CC(=O)N1CC[C@H]2CC[C@@H](C(=O)N3CCOc4ccccc43)N2C(=O)[C@@H](NC(=O)c2cc3cc(C(F)(F)P(=O)(O)O)ccc3[nH]2)C1` [Compound 372, ((2-(((5S,8S,10aR)-3-acetyl-8-(3,4-dihydro-2H-benzo[b][1,4]oxazine-4-carbonyl)-6-oxodecahydropyrrolo[1,2-a][1,5]diazocin-5-yl)carbamoyl)-1H-indol-5-yl)difluoromethyl)phosphonic acid], the pKi was less than 5.00.
With `CC(=O)N1CC[C@H]2CC[C@@H](C(=O)N3CCc4cc(I)ccc4C3)N2C(=O)[C@@H](NC(=O)c2cc3cc(C(F)(F)P(=O)(O)O)ccc3[nH]2)C1` [Compound 373, ((2-(((5S,8S,10aR)-3-acetyl-8-(6-iodo-1,2,3,4-tetrahydroisoquinoline-2-carbonyl)-6-oxodecahydropyrrolo[1,2-a][1,5]diazocin-5-yl)carbamoyl)-1H-indol-5-yl)difluoromethyl)phosphonic acid] the figure was 5.00 to 6.00; with `CC(=O)N1CC[C@H]2CC[C@@H](C(=O)N3CCc4ccccc4CC3)N2C(=O)[C@@H](NC(=O)c2cc3cc(C(F)(F)P(=O)(O)O)ccc3[nH]2)C1` [Compound 374, ((2-(((5S,8S,10aR)-3-acetyl-6-oxo-8-(2,3,4,5-tetrahydro-1H-benzo[d]azepine-3-carbonyl)decahydropyrrolo[1,2-a][1,5]diazocin-5-yl)carbamoyl)-1H-indol-5-yl)difluoromethyl)phosphonic acid], less than 5.00.
With `CC(=O)N1CC[C@H]2CC[C@@H](C(=O)N(C)c3ccc(Cl)cc3)N2C(=O)[C@@H](NC(=O)c2cc3cc(C(F)(F)P(=O)(O)O)ccc3[nH]2)C1` [Compound 375, ((2-(((5S,8S,10aR)-3-acetyl-8-((4-chlorophenyl)(methyl)carbamoyl)-6-oxodecahydropyrrolo[1,2-a][1,5]diazocin-5-yl)carbamoyl)-1H-indol-5-yl)difluoromethyl)phosphonic acid] the figure was less than 5.00.
In the case of `CC(=O)N1CC[C@H]2CC[C@@H](C(=O)N(C)c3ccc(F)cc3)N2C(=O)[C@@H](NC(=O)c2cc3cc(C(F)(F)P(=O)(O)O)ccc3[nH]2)C1` [Compound 376, ((2-(((5S,8S,10aR)-3-acetyl-8-((4-fluorophenyl)(methyl)carbamoyl)-6-oxodecahydropyrrolo[1,2-a][1,5]diazocin-5-yl)carbamoyl)-1H-indol-5-yl)difluoromethyl)phosphonic acid], the pKi is less than 5.00.
With `CC(=O)N1CC[C@H]2CC[C@@H](C(=O)N3Cc4ccc(Cl)cc4C3)N2C(=O)[C@@H](NC(=O)c2cc3cc(C(F)(F)P(=O)(O)O)ccc3[nH]2)C1` [Compound 377, ((2-(((5,8S,10aR)-3-acetyl-8-(5-chloroisoindoline-2-carbonyl)-6-oxodecahydropyrrolo[1,2-a][1,5]diazocin-5-yl)carbamoyl)-1H-indol-5-yl)difluoromethyl)phosphonic acid] the figure was less than 5.00; with `CC(=O)N1CC[C@H]2CC[C@@H](C(=O)N3Cc4cccc(Cl)c4C3)N2C(=O)[C@@H](NC(=O)c2cc3cc(C(F)(F)P(=O)(O)O)ccc3[nH]2)C1` [Compound 378, ((2-(((5S,8S,10aR)-3-acetyl-8-(4-chloroisoindoline-2-carbonyl)-6-oxodecahydropyrrolo[1,2-a][1,5]diazocin-5-yl)carbamoyl)-1H-indol-5-yl)difluoromethyl)phosphonic acid], less than 5.00; with `CN(C(=O)[C@@H]1CC[C@@H]2CCC[C@H](NC(=O)c3cc4cc(C(F)(F)P(=O)(O)O)ccc4s3)C(=O)N21)c1ccc(Cl)cc1` [Compound 379, ((2-(((3S,6S,9aS)-3-((4-chlorophenyl)(methyl)carbamoyl)-5-oxooctahydro-1H-pyrrolo[1,2-a]azepin-6-yl)carbamoyl)benzo[b]thiophen-5-yl)difluoromethyl)phosphonic acid], less than 5.00.
As to `CN(C(=O)[C@@H]1CC[C@H]2CCC[C@H](NC(=O)c3cc4cc(C(F)(F)P(=O)(O)O)ccc4s3)C(=O)N21)c1ccc(Cl)cc1` [Compound 380, ((2-(((3S,65,9aR)-3-((4-chlorophenyl)(methyl)carbamoyl)-5-oxooctahydro-1H-pyrrolo[1,2-a]azepin-6-yl)carbamoyl)benzo[b]thiophen-5-yl)difluoromethyl)phosphonic acid], the pKi is less than 5.00.
For `CC(=O)N1CC[C@H]2CC[C@@H](C(=O)N3CCCCC3)N2C(=O)[C@@H](NC(=O)c2cc3cc(C(F)(F)P(=O)(O)O)ccc3s2)C1` [Compound 381, ((2-(((5S,8S,10aR)-3-acetyl-6-oxo-8-(piperidine-1-carbonyl)decahydropyrrolo[1,2-a][1,5]diazocin-5-yl)carbamoyl)benzo[b]thiophen-5-yl)difluoromethyl)phosphonic acid] the value was less than 5.00.
Consider `CC(=O)N1CC[C@H]2CC[C@@H](C(=O)N3CCC4(CCCC4)C3)N2C(=O)[C@@H](NC(=O)c2cc3cc(C(F)(F)P(=O)(O)O)ccc3s2)C1` [Compound 382, ((2-(((5S,8S,10aR)-3-acetyl-6-oxo-8-(2-azaspiro[4.4]nonane-2-carbonyl)decahydropyrrolo[1,2-a][1,5]diazocin-5-yl)carbamoyl)benzo[b]thiophen-5-yl)difluoromethyl)phosphonic acid], for which the pKi is less than 5.00.
With `CC(=O)N1CC[C@H]2CC[C@@H](C(=O)N3CCC4(CCCCC4)C3)N2C(=O)[C@@H](NC(=O)c2cc3cc(C(F)(F)P(=O)(O)O)ccc3s2)C1` [Compound 383, ((2-(((5,8S,10aR)-3-acetyl-6-oxo-8-(2-azaspiro[4.5]decane-2-carbonyl)decahydropyrrolo[1,2-a][1,5]diazocin-5-yl)carbamoyl)benzo[b]thiophen-5-yl)difluoromethyl)phosphonic acid] the figure was less than 5.00.
